Patent publication US20040123342A1, “Monocotyledonous plant transformation” (Sugar Research & Development Corporation, priority 2000, published 2004)

Columns and labels:
[1] = test system: TS leaf whorl explants obtained from the Q187 and Q124 sugarcane cultivars; assay: Cross-testing of NAA and BA concentrations for shoot regeneration from thin section leaf whorl explants; format: cell-based; details: for optimal concentration in culture medium for regeneration: Q187 and Q124 TS leaf whorl explants
Experimental: Murashige & Skoog (MS) nutrient formulation supplemented with 30 g/L sucrose and 7.5 g/L Difco agar was used as the basal culture medium. Basal medium was, for certain phases of culture as will be described below, enriched with the cytokinin N^6-benzylaminopurine (BA) and the auxin a-napthaleneacetic acid NAA) together with anti-oxidants such as citric acid (CA), ascorbic acid (AA), or dithiothreitol (DTT). The pH of the medium was adjusted to 5.7 before autoclaving at 11kPa for 20 minutes at 120° C. TS explants were cultured in various orientations either in tissue culture dishes (90×14 mm) with 40 ml agar- solidified medium or in a 100 mL baby food jar containing 40 ml liquid medium, or on membrane rafts with flotation kept in a polypropylene container with 40 ml liquid medium. Liquid cultures were agitated continuously on a gyratory shaker at 120 rpm. All cultures were incubated at […] under 16 hr photoperiod provided by cool, white fluorescent tubes, Subculturing was carried out at least once a week, or more frequently if medium or TS turned brown due to phenolic exudation. Cross-testing of NAA and BA concentrations was also performed using TS leaf whorl explants obtained from the […] and […] sugarcane cultivars. […] However, higher concentrations of NAA (10-40 μM) promoted a slightly […] percentage of explants producing shoots. There was no clear trend in terms of the number of shoots produced with regard to either NAA or BA concentration, Generally, 4 μM BA was preferred at any given concentration of NAA, while NAA was optimal when present in culture medium at a concentration of 10 μM.

[2] = test system: leaf TS explants (sugarcane cultivar Q165); assay: Effect of selection agent on shoot regeneration from bombarded leaf TS explants; format: cell-based; details: 100 mg/L in medium, transfer at 3 days after bombardment
Experimental: Sugarcane leaf sheath tissue taken from just above the meristem was taken from cultivar Q165 plants. Transverse thin section explants (2-3 mm) of leaf whorl were obtained from the harvested tissue. These are generally referred to as leaf thin sections.
A number of preliminary experiments were performed to detennije parametens which provided optimal regeneration from transformed tissue while providing optimal selection of transformants.
Similar results were obtained when bombarded TS explants were transferred to medium containing even low levels of selection agent.

Compound | optimal concentration in culture medium for regeneration [1] [µM] | regeneration efficiency, 4 μM vs 8 μM BA ([1]; cultivar Q124, any of the regeneration criteria examined) | regeneration efficiency, 4 μM vs 8 μM BA ([1]; cultivar Q187, TS leaf whorl explants) | percentage of explants producing shoots ([1]; higher concentrations of NAA (10-40 μM)) | shoot regeneration [2]
c1ccc(CNc2ncnc3nc[nH]c23)cc1 [BA, N^6-benzylaminopurine] | 4 | no clear preference | 4 μM BA was clearly more efficient than 8 μM BA |  | 
O=C(O)Cc1cccc2ccccc12 [NAA, a-napthaleneacetic acid] | 10 |  |  | slightly hither percentage of explants producing shoots | 
paromomycin sulphate |  |  |  |  | no shoot regeneration
